Measured values taken from PMC4245091, “Novel Virtual Screening Approach for the Discovery of Human Tyrosinase Inhibitors” (PLoS ONE, 2014).

Target: T1, Mushroom tyrosinase
T1 construct: gene PPO1; commercial native mushroom preparation (Sigma-Aldrich)
Assay: L-tyrosine to dopachrome, absorbance at […] nm
Assay type: biochemical
Details: L-tyrosine 0.2 mg/ml; 2 µg/ml enzyme; 100 mM phosphate pH 6.8; 5% ethanol; 25 °C; 30 min

CC(C)c1ccc(C(=O)CC(Sc2ccc(Cl)cc2)C(=O)O)cc1 (stereo not shown) [Lead1]
IC50: 8 µM
